# How the values were obtained:
# [1] = system: patients with essential blepharospasm; assay: Jankovic rating scale (JRS) sum score, severity plus frequency of eyelid spasms, before and immediately after lens placement; format: in vivo, human; details: sum of severity (0-4) and frequency (0-4) scores immediately after lens placement
# Procedure: (§1) All patients in the study have an established diagnosis of essential blepharospasm currently managed with botulinum toxin injections. Prior to treatment with the fluorescein dye, patients are evaluated for their blink rate as determined by the number of blinks per minute. Patients are also evaluated using the Jankovic rating scale which has 2 components: 1. The severity of the eyelid spasms are rated from 0-4 (0=no spasms, 4=severe incapacitating spasms) and, 2. The frequency of spasms are rated from 0-4 (0=no spasms, 4=persistent eye closure). The sum of the severity score and the frequency score is then computed. Patients are then fitted with a scleral contact lens with normal saline solution mixed with fluorescein dye placed in the fluid reservoir. The blink rate and JRS sum score are then assessed immediately after placement of the lens.
# [2] = system: patients with essential blepharospasm; assay: Blink rate before and immediately after placement of a scleral contact lens with fluorescein dye in the fluid reservoir; format: in vivo, human; details: immediately after placement of scleral lens with saline mixed with fluorescein dye
# Procedure: as §1
structure (smiles),measurement,setting,value
O=C1OC2(c3ccc(O)cc3Oc3cc(O)ccc32)c2ccccc21 [fluorescein],Post JRS,"[1]; Patient 1, pre JRS 7",1
same,Post JRS,"[1]; Patient 2, pre JRS 6",3
same,Post JRS,"[1]; Patient 3, pre JRS 6",4
same,Post JRS,"[1]; Patient 4, pre JRS 7",4
same,Post JRS,"[1]; Patient 5, pre JRS 7",3
same,Post blink-rate,"[2]; Patient 1, pre blink-rate 80",10 blinks per minute
same,Post blink-rate,"[2]; Patient 2, pre blink-rate 50",20 blinks per minute
same,Post blink-rate,"[2]; Patient 3, pre blink-rate 60",40 blinks per minute
same,Post blink-rate,"[2]; Patient 4, pre blink-rate 70",35 blinks per minute
same,Post blink-rate,"[2]; Patient 5, pre blink-rate 70",49 blinks per minute

# Source: patent US20190350895A1, “PHOTOCHROMATIC MODULATION WITH FLUORESCEIN FOR THE TREATMENT OF PHOTO-OCULODYNIA AND BLEPHAROSPASM” (Baylor College of Medicine, priority 2016, published 2019)
